In patent US7868005B2, “Pyrazinyl substituted piperazine-piperidines with CXCR3 antagonist activity” (Schering Corporation, priority 2005, dated 2011):

What follows are compounds tested against T1, human CXCR3 (N-delta 4) (Homo sapiens, UniProt P49682) (assay: Human CXCR3 (N-delta 4) Scintillation Proximity Assay (SPA), [125I] IP-10 binding to Ba/F3-hCXCR3 membranes). Conditions: IC50 rating, Table 1; read-out: IC50.
T1 construct: CD8 leader (N); Flag; expressed in transfected cells; membranes prepared
T1 sequence (P49682 5-368 limits assumed): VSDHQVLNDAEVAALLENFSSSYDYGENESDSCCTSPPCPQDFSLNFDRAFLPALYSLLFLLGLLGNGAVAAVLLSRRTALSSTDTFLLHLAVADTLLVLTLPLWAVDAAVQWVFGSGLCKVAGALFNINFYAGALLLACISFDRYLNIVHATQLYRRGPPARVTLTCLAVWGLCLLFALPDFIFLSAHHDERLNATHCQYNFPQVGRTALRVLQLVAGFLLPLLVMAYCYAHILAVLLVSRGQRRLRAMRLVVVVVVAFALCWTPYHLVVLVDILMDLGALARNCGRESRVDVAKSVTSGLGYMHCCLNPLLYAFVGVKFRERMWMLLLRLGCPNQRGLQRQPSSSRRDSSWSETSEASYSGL

| IC50 | SMILES |
| --- | --- |
| 25 to 100 nM | CC[C@H]1CN(c2nc(N)c(C(=O)NCCNS(C)(=O)=O)nc2Cl)CCN1C1CCN([C@H](CO)c2ccc(Cl)cc2)CC1 [compound 249] |
| 25 to 100 nM | CC[C@H]1CN(c2nc(N)c(C(=O)NCCNS(C)(=O)=O)nc2Cl)CCN1C1CCN([C@@H](C(=O)OC)c2ccc(Cl)cc2)CC1 [compound 250] |
| > 100 nM | CC[C@H]1CN(c2nc(N)c(C(=O)NCCNS(C)(=O)=O)nc2Cl)CCN1C1CCN([C@H](C(=O)OC)c2ccc(Cl)cc2)CC1 [compound 251] |
| 25 to 100 nM | CC[C@H]1CN(c2nc(N)c(C(=O)NCCNS(C)(=O)=O)nc2Cl)CCN1C1CCN(Cc2ccc(F)c(F)c2N2CC[C@@H](O)C2)CC1 [compound 252] |
| 25 to 100 nM | CC[C@H]1CN(c2nc(N)c(C(=O)NCCNS(C)(=O)=O)nc2Cl)CCN1C1CCN(Cc2ccc(Cl)cc2C#N)CC1 [compound 253] |
| 25 to 100 nM | CC[C@H]1CN(c2nc(N)c(C(=O)NCCNS(C)(=O)=O)nc2Cl)CCN1C1CCN(Cc2ccc(Cl)cc2C(=N)NC)CC1 [compound 254] |
| 25 to 100 nM | CC[C@H]1CN(c2nc(N)c(C(=O)NCCNS(=O)(=O)N(C)C)nc2Cl)CCN1C1CCN(Cc2ccc(C#N)cc2)CC1 [compound 255] |
| < 25 nM | CC[C@H]1CN(c2nc(NCc3ccc(F)c(F)c3)c(C(=O)NCCNS(N)(=O)=O)nc2Cl)CCN1C1CCN(Cc2ccc(F)c(F)c2)CC1 [compound 256] |
| < 25 nM | CC[C@H]1CN(c2nc(N)c(C(=O)NCCNS(N)(=O)=O)nc2Cl)CCN1C1CCN([C@@H](CO)c2ccc(Cl)cc2)CC1 [compound 257] |
| < 25 nM | CC[C@H]1CN(c2nc(N)c(C(=O)NCCNS(N)(=O)=O)nc2Cl)CCN1C1CCN(Cc2ccc(Cl)cc2C(=N)N)CC1 [compound 258] |
| < 25 nM | CC[C@H]1CN(c2nc(N)c(C(=O)NCCNS(N)(=O)=O)nc2Cl)CCN1C1CCN(C(CO)c2ccc(Cl)cc2)CC1 (some centres unmarked) [compound 259] |
| < 25 nM | CC[C@H]1CN(c2nc(N)c(C(=O)NCCNS(N)(=O)=O)nc2Cl)CCN1C1CCN(Cc2ccc(Cl)cc2C(=N)NC)CC1 [compound 260] |
| 25 to 100 nM | CC[C@H]1CN(c2nc(N)c(C(=O)NCCNS(N)(=O)=O)nc2Cl)CCN1C1CCN([C@@H](C(=O)OC)c2ccc(Cl)cc2)CC1 [compound 261] |
| > 100 nM | CC[C@H]1CN(c2nc(N)c(C(=O)NCCNS(N)(=O)=O)nc2Cl)CCN1C1CCN([C@H](CO)c2ccc(Cl)cc2)CC1 [compound 262] |
| > 100 nM | CC[C@H]1CN(c2nc(N)c(C(=O)NCCNS(N)(=O)=O)nc2Cl)CCN1C1CCN(C(C(=O)OC)c2ccc(Cl)cc2)CC1 (some centres unmarked) [compound 263] |
| < 25 nM | CC[C@H]1CN(c2nc(N)c(C(=O)NCCNS(N)(=O)=O)nc2Cl)CCN1C1CCN(Cc2ccc(Cl)cc2)CC1 [compound 264] |
| < 25 nM | CC[C@H]1CN(c2nc(N)c(C(=O)NCCNS(N)(=O)=O)nc2Cl)CCN1C1CCN(Cc2ccc(F)c(F)c2)CC1 [compound 265] |
| < 25 nM | CC[C@H]1CN(c2nc(N)c(C(=O)NCCNS(N)(=O)=O)nc2Cl)CCN1C1CCN(Cc2ccc(C#N)cc2)CC1 [compound 266] |
| < 25 nM | CC[C@H]1CN(c2nc(N)c(C(=O)NCCNS(N)(=O)=O)nc2Cl)CCN1C1CCN(Cc2ccc(Cl)cc2C#N)CC1 [compound 267] |
| < 25 nM | CC[C@H]1CN(c2nc(N)c(C(=O)NCCOC)nc2Cl)CCN1C1CCN(Cc2ccc(Cl)cc2)CC1 [compound 268] |
| > 100 nM | CC[C@H]1CN(c2nc(N)c(C(=O)N=C(N)N)nc2Cl)CCN1C1CCN(Cc2ccc(Cl)cc2F)CC1 [compound 269] |

| IC50 | SMILES |
| --- | --- |
| < 25 nM | CC[C@H]1CN(c2nc(N)c(C(=O)NNC(=S)NC)nc2Cl)CCN1C1CCN(Cc2ccc(Cl)cc2)CC1 [compound 270] |
| < 25 nM | CC[C@H]1CN(c2nc(N)c(C(=O)NN)nc2Cl)CCN1C1CCN(Cc2ccc(Cl)cc2)CC1 [compound 271] |
| 25 to 100 nM | CC[C@H]1CN(c2nc(N)c(C(=O)NNC(C)=O)nc2Cl)CCN1C1CCN(Cc2ccc(Cl)cc2)CC1 [compound 272] |
| > 100 nM | CC[C@H]1CN(c2nc(N)c(C(=O)N[C@@H]3CCN(C(=O)OC(C)(C)C)C3)nc2Cl)CCN1C1CCN(Cc2ccc(Cl)cc2)CC1 [compound 274] |
| > 100 nM | CC[C@H]1CN(c2nc(N)c(C(=O)NCCCN3CCCS3(=O)=O)nc2Cl)CCN1C1CCN(Cc2ccc(C#N)cc2)CC1 [compound 275] |
| > 100 nM | CC[C@H]1CN(c2nc(N)c(C(=O)NCCCN3CCCC3=O)nc2Cl)CCN1C1CCN(Cc2ccc(C#N)cc2)CC1 [compound 276] |
| < 25 nM | CC[C@H]1CN(c2nc(N)c(C(=O)NC3CCOC3=O)nc2Cl)CCN1C1CCN(Cc2ccc(Cl)cc2)CC1 (some centres unmarked) [compound 277] |
| < 25 nM | CC[C@H]1CN(c2nc(N)c(C(=O)NC3CCOC3=O)nc2Cl)CCN1C1CCN(Cc2ccc(Cl)cc2)CC1 (some centres unmarked) [compound 278] |
| < 25 nM | CC[C@H]1CN(c2nc(N)c(C(=O)N[C@H]3CCOC3=O)nc2Cl)CCN1C1CCN(Cc2ccc(Cl)cc2)CC1 [compound 279] |
| > 100 nM | CC[C@H]1CN(c2nc(N)c(C(=O)N[C@@H]3CCNC3=O)nc2Cl)CCN1C1CCN(Cc2ccc(C#N)cc2)CC1 [compound 280] |
| > 100 nM | CC[C@H]1CN(c2nc(N)c(C(N)=O)nc2Cl)CCN1C1(C)CCN(Cc2ccc(Cl)cc2C(N)=O)CC1 [compound 281] |
| 25 to 100 nM | CC[C@H]1CN(c2nc(N)c(C(N)=O)nc2Cl)CCN1C1CCN(Cc2ccc(Cl)cc2)[C@H](C(N)=O)C1 (some centres unmarked) [compound 282] |
| > 100 nM | CC[C@H]1CN(c2nc(N)c(C(N)=O)nc2Cl)CCN1[C@H]1CCN(Cc2ccc(Cl)cc2)C[C@@H]1O [compound 283] |
| < 25 nM | CC[C@H]1CN(c2ncc(C(N)=O)nc2Cl)CCN1C1CCN(Cc2ccc(Cl)cc2F)CC1 [compound 284] |
| < 25 nM | CC[C@H]1CN(c2ncc(C(N)=O)nc2Cl)CCN1C1CCN(Cc2ccc(Cl)cc2[C@H](O)C(N)=O)CC1 [compound 285] |
| < 25 nM | CC[C@H]1CN(c2ncc(C(N)=O)nc2Cl)CCN1C1CCN(Cc2ccc(Cl)cc2[C@@H](O)C(N)=O)CC1 [compound 286] |
| > 100 nM | CNC(=O)c1cnc(N2C[C@H](C)N(C3CCN(Cc4ccc(Cl)cc4F)CC3)C[C@H]2C)cn1 [compound 287] |
| > 100 nM | COC(=O)c1cnc(N2C[C@H](C)N(C3CCN(Cc4ccc(Cl)cc4F)CC3)C[C@H]2C)cn1 [compound 288] |
| > 100 nM | C[C@@H]1CN(C2CCN(Cc3ccc(Cl)cc3F)CC2)[C@@H](C)CN1c1cnc(C(N)=O)cn1 [compound 289] |
| < 25 nM | CC[C@H]1CN(c2nc(N(C)C)c(C(=O)OC)nc2Cl)CCN1C1CCN(Cc2ccc(Cl)cc2)CC1 [compound 290] |
| 25 to 100 nM | CC[C@H]1CN(c2nc(NC(=O)N(C)C)c(C(=O)OC)nc2Cl)CCN1C1CCN(Cc2ccc(Cl)cc2)CC1 [compound 291] |

| IC50 | SMILES |
| --- | --- |
| < 25 nM | CC[C@H]1CN(c2nc(NC(=O)C(F)(F)F)c(C(N)=O)nc2Cl)CCN1C1CCN(Cc2ccc(Cl)cc2F)CC1 [compound 292] |
| > 100 nM | CC[C@H]1CN(c2nc(N)c(C(=O)O)nc2Cl)CCN1C1CCN(Cc2ccc(Cl)cc2)CC1 [compound 293] |
| < 25 nM | CC[C@H]1CN(c2nc(N)c(C(=O)OC)nc2Cl)CCN1C1CCN(Cc2ccc(Cl)cc2CCN)CC1 [compound 294] |
| < 25 nM | CC[C@H]1CN(c2nc(N)c(C(=O)OC)nc2Cl)CCN1C1CCN(Cc2ccc(Cl)cc2F)CC1 [compound 295] |
| < 25 nM | CC[C@H]1CN(c2nc(N)c(C(=O)OC)nc2Cl)CCN1C1CCN(Cc2ccc(Cl)cc2CCNC(=O)OC(C)(C)C)CC1 [compound 296] |
| 25 to 100 nM | CC[C@H]1CN(c2nc(N)c(C(=O)OC)nc2Cl)CCN1C1CCN(Cc2ccc(Cl)cc2OCCNC(=O)NC(C)(C)C)CC1 [compound 297] |
| 25 to 100 nM | CCNC(=O)NCCc1cc(Cl)ccc1CN1CCC(N2CCN(c3nc(N)c(C(=O)OC)nc3Cl)C[C@@H]2CC)CC1 [compound 298] |
| 25 to 100 nM | CC[C@H]1CN(c2nc(N)c(C(=O)OC)nc2Cl)CCN1C1CCN(Cc2ccc(Cl)cc2CC#N)CC1 [compound 299] |
| > 100 nM | CC[C@H]1CN(c2nc(N)c(C(=O)OC)nc2Cl)CCN1C1CCN(Cc2ccc(Cl)cc2C#N)CC1 [compound 300] |
| > 100 nM | COC(=O)c1nc(Cl)c(N2C[C@H](C)N(C3CCN(Cc4ccc(Cl)cc4F)CC3)C[C@H]2C)nc1N [compound 301] |
| > 100 nM | COC(=O)c1nc(Cl)c(N2CCN(C3CCN(Cc4ccc(Cl)cc4)CC3)[C@@H](C)C2)nc1N [compound 302] |
| > 100 nM | CC[C@H]1CN(c2nc(N)c(C(=O)OC)nc2Cl)CCN1C1CCN(Cc2ccc(Cl)cc2CCNS(C)(=O)=O)CC1 [compound 303] |
| < 25 nM | CC[C@H]1CN(c2nc(N)c(C(=O)NCCO)nc2Cl)CCN1C1CCN(C2c3ccc(C#N)cc3CCC2O)CC1 (some centres unmarked) [compound 304] |
| > 100 nM | CC[C@H]1CN(c2nc(N)c(C(=O)OC)nc2Cl)CCN1C1CCN(C2c3ccc(C#N)cc3CCC2O)CC1 (some centres unmarked) [compound 305] |
| > 100 nM | CC[C@H]1CN(c2nc(N)c(C(=O)OC)nc2Cl)CCN1C1CCN(Cc2ccc(C#N)cc2O)CC1 [compound 306] |
| > 100 nM | CC[C@H]1CN(c2nc(N)c(C(=O)OC)nc2Cl)CCN1C1CCN(Cc2ccc(C#N)cc2OCCO)CC1 [compound 307] |
| > 100 nM | CC[C@H]1CN(c2nc(N)c(C(=O)OC)nc2Cl)CCN1C1CCN(Cc2ccc(C#N)cc2OCCOC)CC1 [compound 308] |
| > 100 nM | CC[C@H]1CN(c2nc(N)c(C(=O)OC)nc2Cl)CCN1C1CCN(Cc2ccc(Cl)cc2CCNC(C)=O)CC1 [compound 309] |
| > 100 nM | CC[C@H]1CN(c2nc(N)c(C(=O)OC)nc2Cl)CCN1C1(C)CCN(Cc2ccc(Cl)cc2)CC1 [compound 310] |
| > 100 nM | CC[C@H]1CN(c2cnc(C(=O)OC(C)C)c(N)n2)CCN1C1CCN(Cc2ccc(Cl)cc2)CC1 [compound 311] |
